Drawing on the OligoGym collection, this text covers target mRNA inhibition for 35 sequences.

Where “and” joins values, the source holds several entries; their conditions need not be identical. Equal values may be shown once. After the bases stand the sugars from the 5' end (letter, count) and the backbone: PS all phosphorothioate, else s phosphorothioate and o phosphodiester by linkage. Methylation of C is not given here. e = 2'-O-(2-methoxyethyl) (MOE); l = locked nucleic acid (LNA); k = constrained ethyl (cEt); d = 2'-deoxy (DNA)

Data set [1] addresses APOL1. The settings on record: ASO.
For data set [2], the target named is SNHG14. The note with it: ASO, Human Neuronal Cell.

For the sequence “CAGATGGGTACTTCTG (sugars kdddddkekekddddd, PS)”, the target mRNA inhibition in data set [1] (A431, 2 µM) was 44%.

“GTGTTATATTTGATCC (sugars kkddddekekeddddd, PS)” yielded a target mRNA inhibition in data set [1] (A431, 2 µM) of 96%.

Consider “CTTTATACCAGTGTCT (sugars k2 d4 e3 k2 d5, PS)”, for which the target mRNA inhibition in data set [1] (A431, 0.0156 µM) stood at 12%; in data set [1] (A431, 0.0625 µM), 46%; in data set [1] (A431, 0.25 µM), 74%; in data set [1] (A431, 1 µM), 92%; in data set [1] (A431, 2 µM), 96%.

For “AGTTTTGTAAGTGCAA (sugars k2 d4 e3 k2 d5, PS)”, the target mRNA inhibition in data set [1] (A431, 0.0156 µM) came to 10%; in data set [1] (A431, 0.0625 µM), 49%; in data set [1] (A431, 0.25 µM) it was 79%; in data set [1] (A431, 1 µM), 93%; in data set [1] (A431, 2 µM), 94%.

With TGTGCTCAGCTATGGA (sugars k4 d9 k3, PS), the target mRNA inhibition in data set [1] (A431, 0.0625 µM) was 41% and 55%; in data set [1] (A431, 0.25 µM), 70% and 74%; in data set [1] (A431, 1 µM), 88% and 87%.

In the case of “GTATTTCTTGATGTGG (sugars kkkddddkdkdkdddd, PS)”, the target mRNA inhibition in data set [1] (A431, 0.0156 µM) was 24%; in data set [1] (A431, 0.0625 µM), 59%; in data set [1] (A431, 0.25 µM), 82%; in data set [1] (A431, 1 µM), 86%; in data set [1] (A431, 2 µM), 92%.

Consider GATTTTCCAACAAGGT (sugars k4 d9 k3, PS), for which the target mRNA inhibition was 54% in data set [1] (A431, 0.0625 µM); 80% in data set [1] (A431, 0.25 µM); 92% in data set [1] (A431, 1 µM).

Take “GGAATTATGGAATTGC (sugars kkkddddkekekdddd, PS)”: the target mRNA inhibition in data set [1] (A431, 2 µM) was 66%.

In data set [2] (7.5 µM), “TATCTTTCCATTTATTTCC (sugars l2 d12 l1 d2 l2, PS)” had a target mRNA inhibition of 44%.

On to TGTATATAACTATTCC (sugars l4 d10 l2, PS), for which the target mRNA inhibition was 21% in data set [2] (0.2 µM) and 20% in data set [2] (1 µM).

Consider “GTTCTACTATACTTTCCT (sugars lldldlddddddddddll, PS)”, for which the target mRNA inhibition in data set [2] (7.5 µM) amounted to 63%.

The sequence “AAGATCATTCTCAACAAT (sugars l2 d2 l2 d6 l6, PS)” came in with a target mRNA inhibition in data set [2] (7.5 µM) of 47%.

Regarding “CTTTCCATTTATTTCCATTT (sugars l1 d13 l1 d3 l2, PS)”, the target mRNA inhibition in data set [2] (7.5 µM) stood at 35%.

For the sequence ATGCTTCTAACTAACA (sugars l4 d10 l2, PS), the target mRNA inhibition in data set [2] (0.2 µM) came out at 25%; in data set [2] (1 µM) it was 46%.

“TACACTTAATTATACTTCCA (sugars lddddldddddddldlddll, PS)” displayed a target mRNA inhibition in data set [2] (7.5 µM) of 60%.

On to “TTCTGTATACACCATCC (sugars ldddlddddddddldll, PS)”, for which the target mRNA inhibition in data set [2] (7.5 µM) stood at 65%.

On to CTCTAATCCTATTCCA (sugars l3 d10 l3, PS), for which the target mRNA inhibition in data set [2] (0.2 µM) was 50%; in data set [2] (1 µM) it was 58%.

Consider “TATTGATTCAATTCCCT (sugars l2 d9 l1 d2 l3, PS)”, for which, in data set [2] (7.5 µM), the target mRNA inhibition was found to be 51%.

Sequence “TTTATTTCCATTTATTTTCA (sugars lldldlddddddddldldll, PS)” showed a target mRNA inhibition in data set [2] (7.5 µM) of 63%.

As to TACATTGACACCTAAT (sugars l4 d10 l2, PS), the figures for the target mRNA inhibition in data set [2] (0.2 µM) and in data set [2] (1 µM) were 19% and 17%, respectively.

In the case of “TCCAAACTGTCTTCTAA (sugars l3 d12 l2, PS)”, the target mRNA inhibition in data set [2] (0.2 µM) amounted to 36%; in data set [2] (1 µM) it was 23%.

Sequence “TTTATTTCCATTTATTTTCA (sugars ldddlldddddddddlldll, PS)” displayed a target mRNA inhibition in data set [2] (7.5 µM) of 65%.

In the case of “TTATAGCCATTCTATCT (sugars ldlddddddddlddlll, PS)”, in data set [2] (7.5 µM), the target mRNA inhibition amounted to 57%.

In turn, “TCTTTCCATTTATTTCCAT (sugars l2 d13 l1 d1 l2, PS)” had a target mRNA inhibition in data set [2] (7.5 µM) of 42%.

As for “CTGTATACACCATCCCA (sugars l1 d10 l1 d3 l2, PS)”, the target mRNA inhibition in data set [2] (7.5 µM) was 54%.

As to “TTATCATTTCATATTACT (sugars l4 d12 l2, PS)”, the target mRNA inhibition in data set [2] (0.2 µM) turned out to be 16%; in data set [2] (1 µM), 34%.

Regarding “GTTTCCATCTACTATTAA (sugars l3 d1 l1 d9 l4, PS)”, the target mRNA inhibition in data set [2] (7.5 µM) came out at 55%.

Consider “ATAATCCCATACATCTA (sugars l3 d11 l3, PS)”, for which the target mRNA inhibition in data set [2] (0.2 µM) was 60%; in data set [2] (1 µM), 69%.

As to AACTCTCACTGTAACT (sugars l4 d10 l2, PS), the figures for the target mRNA inhibition in data set [2] (0.2 µM) and in data set [2] (1 µM) were 41% and 53%, respectively.

The sequence “CTGTTTATACCCTTTCCA (sugars l1 d4 l1 d10 l2, PS)” registered a target mRNA inhibition in data set [2] (7.5 µM) of 58%.

“AAAATCTCAACTACCATTTT (sugars l1 d12 l4 d1 l2, PS)” registered a target mRNA inhibition in data set [2] (7.5 µM) of 42%.

For “CTTTACTCTGCAATACA (sugars l2 d11 l4, PS)”, the target mRNA inhibition in data set [2] (0.2 µM) was determined as 49%; in data set [2] (1 µM), 59%.

Turning to “TTTATTTCCATTTATTTTC (sugars ldldlddddddddlldlll, PS)”, in data set [2] (7.5 µM), the target mRNA inhibition turned out to be 53%.

Take AACATGTAATTTCCAT (sugars l2 d10 l4, PS): the target mRNA inhibition came out at 31% in data set [2] (0.2 µM) and 27% in data set [2] (1 µM).

In data set [2] (7.5 µM), “TTTCCATTTATTTCCATTTA (sugars l2 d2 l1 d12 l3, PS)” had a target mRNA inhibition of 62%.
